Measurements: PMC4273980 (ACS Chemical Biology, 2014)
Entries after “also recorded” stand apart in the source; their conditions may differ.

Target: T1, hP2Y14R (Homo sapiens, UniProt Q15391)
T1 sequence (Q15391 1-338): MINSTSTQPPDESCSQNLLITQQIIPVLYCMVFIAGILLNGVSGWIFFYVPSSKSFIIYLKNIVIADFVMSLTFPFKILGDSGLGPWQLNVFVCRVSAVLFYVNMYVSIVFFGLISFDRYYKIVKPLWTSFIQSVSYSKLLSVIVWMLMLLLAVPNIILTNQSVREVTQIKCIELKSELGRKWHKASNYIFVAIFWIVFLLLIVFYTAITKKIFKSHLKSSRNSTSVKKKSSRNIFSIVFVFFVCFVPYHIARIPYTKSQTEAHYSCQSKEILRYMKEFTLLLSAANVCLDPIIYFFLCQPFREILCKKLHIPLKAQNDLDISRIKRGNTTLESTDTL
Experiment: Antagonism of 2
Format: cell-based
Details: not given

Row | Ki | Compound
1 | 120 ± 8 nM | CCOC(=O)c1cc(-c2ccc(C3CCNCC3)cc2)c2ccc(-c3ccc(C(F)(F)F)cc3)cc2c1 [compound 19]
2 | 2.7 ± 1.2 nM | C#CCCN1CCC(c2ccc(-c3cc(C(=O)O)cc4cc(-c5ccc(C(F)(F)F)cc5)ccc34)cc2)CC1 [compound 20]
3 | 13 ± 1.1 nM | C#CCCCCN1CCC(c2ccc(-c3cc(C(=O)O)cc4cc(-c5ccc(C(F)(F)F)cc5)ccc34)cc2)CC1 [compound 22]
4 | 2 ± 0.2 nM | C=C1CCC[N+]12CCC(c1ccc(-c3cc(C(=O)[O-])cc4cc(-c5ccc(C(F)(F)F)cc5)ccc34)cc1)CC2 (centres unmarked) [compound 23]
5 | 6.7 ± 2.2 nM | C#CCCC(=O)N1CCC(c2ccc(-c3cc(C(=O)O)cc4cc(-c5ccc(C(F)(F)F)cc5)ccc34)cc2)CC1 [compound 24]
6 | 8.3 ± 1.9 nM | C#CCCCCC(=O)N1CCC(c2ccc(-c3cc(C(=O)O)cc4cc(-c5ccc(C(F)(F)F)cc5)ccc34)cc2)CC1 [compound 25]
7 | 26 ± 6 nM | CC(C)(C)OC(=O)NCCCN1CCC(c2ccc(-c3cc(C(=O)O)cc4cc(-c5ccc(C(F)(F)F)cc5)ccc34)cc2)CC1 [compound 26]
8 | 14 ± 2.4 nM | NCCCN1CCC(c2ccc(-c3cc(C(=O)O)cc4cc(-c5ccc(C(F)(F)F)cc5)ccc34)cc2)CC1 [compound 27]
9 | > 100 nM | O=C(CCCCCNC(=O)COc1ccc(/C=C/C2=CC3=Cc4ccc(-c5cccs5)n4[B-](F)(F)[N+]3=C2)cc1)NCCCn1cc(CCCCN2CCC(c3ccc(-c4cc(C(=O)O)cc5cc(-c6ccc(C(F)(F)F)cc6)ccc45)cc3)CC2)nn1 [compound 32]

Same assay, conditions: P2Y14R-CHO cells

Row | antagonist potency / affinity at P2Y14R, in words | Compound
10 | much weaker; also recorded: low affinity | O=C(CCCCCNC(=O)COc1ccc(/C=C/C2=CC3=Cc4ccc(-c5cccs5)n4[B-](F)(F)[N+]3=C2)cc1)NCCCn1cc(CCCCN2CCC(c3ccc(-c4cc(C(=O)O)cc5cc(-c6ccc(C(F)(F)F)cc6)ccc45)cc3)CC2)nn1 [compound 32]

Same assay, conditions: relative to 6

Row | fold weaker as an antagonist than free carboxylate analogue 6 | Compound
11 | 400 fold | CCOC(=O)c1cc(-c2ccc(C3CCNCC3)cc2)c2ccc(-c3ccc(C(F)(F)F)cc3)cc2c1 [compound 19]

Target: T2, P2Y14R (Homo sapiens, UniProt Q15391)
T2 sequence (Q15391 1-338): T1 sequence (Q15391 1-338)
Experiment: Flow cytometry
Details: 10 μM competing ligand, 30 min preincubation; 10 nM 30

Row | effect of competing ligand on labeling of P2Y14R-CHO cells by 30, in words | Compound
12 | largely prevented the labeling | O=c1ccn([C@@H]2O[C@H](COP(=O)(O)OP(=O)(O)O)[C@@H](O)[C@H]2O)c(=O)[nH]1 [compound 1, uridine-5′-diphosphate]
13 | largely prevented the labeling | O=C(O)c1cc(-c2ccc(C3CCNCC3)cc2)c2ccc(-c3ccc(C(F)(F)F)cc3)cc2c1 [compound 6, 4-(4-(piperidin-4-yl)-phenyl)-7-(4-(trifluoromethyl)-phenyl)-2-naphthoic acid]
14 | largely prevented the labeling | O=C(O)[C@H]1O[C@H](OP(=O)(O)OP(=O)(O)OC[C@H]2O[C@@H](n3ccc(=O)[nH]c3=O)[C@H](O)[C@@H]2O)[C@H](O)[C@@H](O)[C@@H]1O [compound 36, uridine-5′-diphosphoglucuronic acid]
15 | failed at 10 μM to prevent binding of 30 | CNc1ncnc2c1ncn2[C@H]1C[C@H](OP(=O)(O)O)[C@@H](COP(=O)(O)O)O1 [compound 37]
16 | failed at 10 μM to prevent binding of 30 | S=C=Nc1cccc(NC(=S)NCCCCNC(=S)Nc2cccc(N=C=S)c2)c1 [compound 38]
17 | only a minor reduction | Cc1ccc(C(=O)Nc2ccc(S(=O)(=O)O)c3cc(S(=O)(=O)O)cc(S(=O)(=O)O)c23)cc1NC(=O)c1cccc(NC(=O)Nc2cccc(C(=O)Nc3cc(C(=O)Nc4ccc(S(=O)(=O)O)c5cc(S(=O)(=O)O)cc(S(=O)(=O)O)c45)ccc3C)c2)c1 [suramin]
